Laboratory results from patent publication US6428969B1, “Method for determining oncogenic activity of a substance” (Ludwig Institute for Cancer Research, priority 1997, dated 2002).

B1: IFNγ: cytokine interferonγ; human IFNγ used on human tumor cell lines (protein, UniProt P01579 24-161, looked up)
Interferon gamma: QDPYVKEAENLKKYFNAGHSDVADNGTLFLGILKNWKEESDRKIMQSQIVSFYFKLFKNFKDDQSIQKSVETIKEDMNVKFFNSNKKKRDDFEKLTNYSVTDLNVQRKAIHELIQVMAELSPAAKTGKRKRSQMLFRG

Experiments:
SK-LC-2 = test: MHC class I surface expression by flow cytometry; assay type: cell-based, human; details: for MHC Class I Enhancement (MCS): IFNγ 1000 IRU/ml or IFNαA/D 1000 U/ml, 72 hr, mean channel shift vs untreated cells
Procedure: (§1) To address this question IFNγ responsiveness was examined in a variety of tumor cell lines obtained from human tumor cell banks. Established cell lines were cultured in the presence of either buffer, human IFNγ (1000 IRU/ml), or human IFNαA/D (1000 U/ml) for 72 hr followed by quantitation of MHC class I surface expression by flow cytometry with the antibody W6/32 as previously described (Farrar et al., supra). W6/32 is a murine monoclonal antibody specific for a framework region of human MHC Class I and was kindly provided by Dr. Thalachallour Mohanakumar (Washington University, St. Louis, Mo.). IFNγ-dependent STAT1 activation was assessed by treating cells with either PBS or human IFNγ at 10,000 IRU/ml for 5 minutes at 37° C. followed by subjecting 5 μg of nuclear extract to EMSA using a ^32P-labeled GRR probe as described by Greenlund et al., EMBO J. 13:1591, 1994, which is incorporated herein by reference.
(§2) The experiment was repeated with 17 human adenocarcinoma cell lines and the data are shown in Table I below, with the induction of MHC class I expression represented as the mean channel shift between IFNγ-treated cells and untreated cells. […] The CALU-5 cell line was also insensitive to IFNα. None of the cell lines examined show IFNα-specific unresponsiveness.

A549 = test: MHC class I surface expression by flow cytometry; assay type: cell-based, human; details: IFNγ 1000 IRU/ml or IFNαA/D 1000 U/ml, 72 hr, mean channel shift vs untreated cells
Procedure: as §1, §2

SK-LC-10 = test: MHC class I surface expression by flow cytometry; assay type: cell-based, human; details: IFNγ 1000 IRU/ml or IFNαA/D 1000 U/ml, 72 hr, mean channel shift vs untreated cells
Procedure: as §1, §2

SK-LC-19 = test: MHC class I surface expression by flow cytometry; assay type: cell-based, human; details: for MHC Class I Enhancement (MCS): SK-LC-19, IFNγ 1000 IRU/ml or IFNαA/D 1000 U/ml, 72 hr, mean channel shift vs untreated cells
Procedure: as §1, §2

CALU-5 = test: MHC class I surface expression by flow cytometry; assay type: cell-based, human; details: for MHC Class I Enhancement (MCS): IFNγ 1000 IRU/ml or IFNαA/D 1000 U/ml, 72 hr, mean channel shift vs untreated cells
Procedure: as §1, §2

SK-LC-16 = test: MHC class I surface expression by flow cytometry; assay type: cell-based, human; details: IFNγ 1000 IRU/ml or IFNαA/D 1000 U/ml, 72 hr, mean channel shift vs untreated cells
Procedure: as §1, §2

SK-LC-7 = test: MHC class I surface expression by flow cytometry; assay type: cell-based, human; details: for MHC Class I Enhancement (MCS): IFNγ 1000 IRU/ml or IFNαA/D 1000 U/ml, 72 hr, mean channel shift vs untreated cells
Procedure: as §1, §2

A457 = test: MHC class I surface expression by flow cytometry; assay type: cell-based, human; details: IFNγ 1000 IRU/ml or IFNαA/D 1000 U/ml, 72 hr, mean channel shift vs untreated cells
Procedure: as §1, §2

SK-LC-15 = test: MHC class I surface expression by flow cytometry; assay type: cell-based, human; details: IFNγ 1000 IRU/ml or IFNαA/D 1000 U/ml, 72 hr, mean channel shift vs untreated cells
Procedure: as §1, §2

SK-LC-9 = test: MHC class I surface expression by flow cytometry; assay type: cell-based, human; details: IFNγ 1000 IRU/ml or IFNαA/D 1000 U/ml, 72 hr, mean channel shift vs untreated cells
Procedure: as §1, §2

SK-LC-11 = test: MHC class I surface expression by flow cytometry; assay type: cell-based, human; details: IFNγ 1000 IRU/ml or IFNαA/D 1000 U/ml, 72 hr, mean channel shift vs untreated cells
Procedure: as §1, §2

SK-LU-1 = test: MHC class I surface expression by flow cytometry; assay type: cell-based, human; details: IFNγ 1000 IRU/ml or IFNαA/D 1000 U/ml, 72 hr, mean channel shift vs untreated cells
Procedure: as §1, §2

SK-LC-4 = test: MHC class I surface expression by flow cytometry; assay type: cell-based, human; details: IFNγ 1000 IRU/ml or IFNαA/D 1000 U/ml, 72 hr, mean channel shift vs untreated cells
Procedure: as §1, §2

CALU-3 = test: MHC class I surface expression by flow cytometry; assay type: cell-based, human; details: IFNγ 1000 IRU/ml or IFNαA/D 1000 U/ml, 72 hr, mean channel shift vs untreated cells
Procedure: as §1, §2

SK-LC-12 = test: MHC class I surface expression by flow cytometry; assay type: cell-based, human; details: IFNγ 1000 IRU/ml or IFNαA/D 1000 U/ml, 72 hr, mean channel shift vs untreated cells
Procedure: as §1, §2

SK-LC-20 = test: MHC class I surface expression by flow cytometry; assay type: cell-based, human; details: IFNγ 1000 IRU/ml or IFNαA/D 1000 U/ml, 72 hr, mean channel shift vs untreated cells
Procedure: as §1, §2

SK-LC-1 = test: MHC class I surface expression by flow cytometry; assay type: cell-based, human; details: IFNγ 1000 IRU/ml or IFNαA/D 1000 U/ml, 72 hr, mean channel shift vs untreated cells
Procedure: as §1, §2

[1] = tested on: perforin-deficient (PKO) mice; details: subcutaneous injection; cited from earlier work
Stat1−/− mice = test: MCA-induced tumor formation at the injection site; assay type: in vivo, mouse
Procedure: (§3) Groups of IFNγR^−/− mice and STAT1^−/^− mice were generated as described in Examples 1 and 2 and compared to a control group of 129/Sv/Ev wild-type mice. All animals were greater than 6 weeks old (ranging in age from about 6 to about 12 weeks). Each of 20-25 animals per group, were injected subcutaneously with a single dose of MCA at 1.5, 6.25, 25, 100 or 400 μg and monitored for tumor development.

α chain knockout mice = details: mouse, in vivo; cited from earlier work
[2] = tested on: IFNγ-responsive and IFNγ-unresponsive mice; test: Histologic comparison of MCA-induced tumors; assay type: in vivo; details: three mouse strains; data not shown
Procedure: Both types of IFNγ insensitive mice developed MCA-induced tumors more frequently than wild-type mice. Tumor formation was detected in IFNγR^−/− mice treated with as little as 6.25 μg MCA.

IFNγR−/− mice = test: MCA-induced tumor formation at the injection site; assay type: in vivo, mouse
Text: (§4) Initially, tumor formation was examined in groups of 15-20 IFNγR^−/^− mice generated as described in Example 1 and wild type inbred 129/Sv/Ev mice as controls. All animals were greater than 6 weeks old (ranging in age from about 6 to about 12 weeks). The 129/Sv/Ev background was specifically chosen for these experiments since 129/Sv/Ev mice are relatively resistant to the tumorigenic actions of MCA and the pure background of the mice insured that in vivo growth of the resulting tumors could be studied using tumor transplantation approaches. The knockout and control mice were injected subcutaneously in a single dose with 25, 100, or 400 μg of the chemical carcinogen 3-methylcholanthrene (MCA) diluted in peanut oil and monitored for tumor development at the injection site for a period of 130 days. The results are shown in FIG. 1A, which represents the percentage of mice in each group with a tumor over 5 mm as a function of the number of days after injection.
as §3

wild type 129/Sv/Ev mice = test: MCA-induced tumor formation at the injection site; assay type: in vivo, mouse; details: for tumor development: Example 5
Text: as §4, §3

p53−/+ mice = details: cited from earlier work
RADgR.28.mgR cells = test: Antiproliferative or anti-metabolic effects of IFNγ in culture; assay type: cell-based, mouse; details: IFNγ alone or in combination with other cytokines, in vitro; data not shown
Text: Having identified the tumor cell as the major target of IFNγ's actions, experiments were designed to define the mechanism underlying the rejection process. IFNγ can induce an antiproliferative state in certain cell types.

[3] = tested on: 33 melanoma and 17 lung tumor cell lines classified as non-adenocarcinoma; test: Preliminary study of IFNγ sensitivity of tumor cell lines; assay type: cell-based, human; details: of each group (33 melanoma, 17 lung non-adenocarcinoma lines), data not shown
Procedure: as §1

[4] = 400 μg MCA, single s.c. dose, at 130 days

Row | Molecule | MHC Class I Enhancement (MCS) (SK-LC-2) | MHC Class I Enhancement (MCS) (A549) | MHC Class I Enhancement (MCS) (SK-LC-10) | MHC Class I Enhancement (MCS) (SK-LC-19) | MHC Class I Enhancement (MCS) (CALU-5) | MHC Class I Enhancement (MCS) (SK-LC-16) | MHC Class I Enhancement (MCS) (SK-LC-7) | MHC Class I Enhancement (MCS) (A457) | MHC Class I Enhancement (MCS) (SK-LC-15) | MHC Class I Enhancement (MCS) (SK-LC-9) | MHC Class I Enhancement (MCS) (SK-LC-11) | MHC Class I Enhancement (MCS) (SK-LU-1) | MHC Class I Enhancement (MCS) (SK-LC-4) | MHC Class I Enhancement (MCS) (CALU-3) | MHC Class I Enhancement (MCS) (SK-LC-12) | MHC Class I Enhancement (MCS) (SK-LC-20) | MHC Class I Enhancement (MCS) (SK-LC-1) | tumor induction (p53−/+ mice) | also measured
1 | IFNα | 16.7 | 21.8 | 22.6 | 25.1 | 0.0 | 10.9 | 37.2 | 27.1 | 79.6 | 53.4 | 13.8 | 16.7 | 36.7 | 17.0 | 12.7 | 25.9 | 18.7 | – | sensitivity to IFNα (CALU-5): insensitive
2 | Cc1ccc2cc3c(ccc4ccccc43)c3c2c1CC3 [MCA, 3-methylcholanthrene] | – | – | – | – | – | – | – | – | – | – | – | – | – | – | – | – | – | – | sarcomas at the injection site compared with normal MCA-treated mice [1]: higher frequency and with accelerated onset of tumor; frequency of tumors relative to IFNγR−/− mice (Stat1−/− mice; at every dose examined): approximately two times; lowest MCA dose at which tumors could be detected (Stat1−/− mice; single s.c. dose, within 130 days): 1.6 μg MCA/mouse; tumors in α chain knockout mice compared with wild-type controls (α chain knockout mice): more tumors; histology of induced tumors [2]: histologically indistinguishable fibrosarcomas; mice forming tumors at the lower MCA dose (IFNγR−/− mice; 25 μg MCA s.c., Example 4): high percentage; percentage of mice that developed tumors (over 5 mm) (IFNγR−/− mice; [4]): 50%; time at which tumors were detected (IFNγR−/− mice; all dose groups (25, 100, 400 μg MCA s.c.)): 90 days; tumor development compared with wild-type mice (IFNγR−/− mice; all doses examined (25, 100, 400 μg)): more frequently and at earlier times; lowest MCA dose at which tumor formation was detected (IFNγR−/− mice; single s.c. dose, within 130 days, Example 5): 6.25 µg; tumor development (wild type 129/Sv/Ev mice; 25 μg MCA): not; tumor development (wild type 129/Sv/Ev mice; 400 μg MCA): developed tumors; percentage of mice in which tumors were detected (over 5 mm) (wild type 129/Sv/Ev mice; [4]): 20%; MCA dose at which tumors formed (wild type 129/Sv/Ev mice; single s.c. dose, 130 days, Example 4): ≥ 100 µg
3 | C1CC2OC2CC1C1CO1 (stereo not drawn) [VCD, 4-vinyl-1-cyclohexene diepoxide] | – | – | – | – | – | – | – | – | – | – | – | – | – | – | – | – | – | tumors were induced | –
4 | COc1ccc(C)cc1N [p-cresidine] | – | – | – | – | – | – | – | – | – | – | – | – | – | – | – | – | – | tumors were induced | –
5 | B1 | 0.0 | 36.9 | 31.7 | 0.0 | 0.0 | 27.0 | 0.0 | 27.7 | 91.3 | 49.3 | 25.3 | 47.1 | 59.5 | 30.4 | 30.4 | 25.6 | 16.9 | – | antiproliferative or anti-metabolic effects (RADgR.28.mgR cells): no antiproliferative or anti-metabolic effects; responsiveness to IFNγ (initiation of IFNγ-signaling or IFNγ dependent biologic response) (SK-LC-2): totally unresponsive; responsiveness to IFNγ (initiation of IFNγ-signaling or IFNγ dependent biologic response) (SK-LC-19; SL-LC-19 as printed): totally unresponsive; responsiveness to IFNγ (initiation of IFNγ-signaling or IFNγ dependent biologic response) (CALU-5): totally unresponsive; responsiveness to IFNγ (initiation of IFNγ-signaling or IFNγ dependent biologic response) (SK-LC-7): totally unresponsive; share of cell lines showing a quantitative reduction in IFNγ sensitivity [3]: approximately 33%
